Columns and labels:
[1] = Kinetic parameter Kun for hydrolysis at 25 degrees Celsius using phosphate buffer in reaction with 3-[2-(4-imidazolyl)ethyl] […]
[2] = Kinetic parameter Km for hydrolysis at 25 degrees Celsius using phosphate buffer in reaction with 3-[2-(4-imidazolyl)ethyl] […]
[3] = Kinetic parameter kcat for hydrolysis at 25 degrees Celsius using phosphate buffer in reaction with 3-[2-(4-imidazolyl)ethyl] […]
[4] = Ratio of kcat and Km was determined
[5] = Ratio of kcat and kun was determined

CC(=O)NC(C)C(=O)Oc1ccc([N+](=O)[O-])cc1 (stereo not given)
Kun [1]: 0.00144 s⁻¹
Km [2]: 1350 µM
k cat [3]: 0.0371 s⁻¹
k cat/Km [4]: 27.5 M⁻¹ s⁻¹
k cat/Kuncat [5]: 26

CC(C)(C)OC(=O)NCC(=O)Oc1ccc([N+](=O)[O-])cc1
Kun [1]: 0.000129 s⁻¹
Km [2]: 387 µM
k cat [3]: 0.0312 s⁻¹
k cat/Km [4]: 80.5 M⁻¹ s⁻¹
k cat/Kuncat [5]: 242

CC(=O)N[C@H](Cc1ccccc1)C(=O)Oc1ccc([N+](=O)[O-])cc1
Kun [1]: 0.000861 s⁻¹
Km [2]: 478 µM
k cat [3]: 0.0238 s⁻¹
k cat/Km [4]: 49.7 M⁻¹ s⁻¹
k cat/Kuncat [5]: 28

CC(=O)NCC(=O)Oc1ccc([N+](=O)[O-])cc1
Kun [1]: 0.000562 s⁻¹
Km [2]: 1470 µM
k cat [3]: 0.0519 s⁻¹
k cat/Km [4]: 35.4 M⁻¹ s⁻¹
k cat/Kuncat [5]: 92

CC(=O)N[C@@H](Cc1ccccc1)C(=O)Oc1ccc([N+](=O)[O-])cc1
Kun [1]: 0.000861 s⁻¹
Km [2]: 148 µM
k cat [3]: 0.011 s⁻¹
k cat/Km [4]: 73.9 M⁻¹ s⁻¹
k cat/Kuncat [5]: 13

— ChEMBL document CHEMBL1126378, “Substrate selectivity of imidazole-appended dimethyl--cyclodextrin” (Bioorg Med Chem Lett, 1992)
